Consider 14 compounds from ChEMBL document CHEMBL2029330 (Bioorg Med Chem Lett, 2012).

Series [1] can be described thus: in vitro. The following applies: human, hepatocytes.
Series [2] in a line: Aqueous solubility of the compound at pH 7.4. Format: physicochemical. The following applies: aqueous medium.
A short description of series [3]: Clearance in dog. Format: ADME, organism-based, Canis lupus familiaris. The conditions noted are these: in vivo.
Series [4] in a line: Oral bioavailability in rat. Format: ADME, organism-based. The following applies: in vivo.
Series [5] in a line: Volume of distribution at steady state in rat. The conditions noted are these: in vivo, read-out: Vdss. The format is ADME, organism-based.
A short description of series [6]: Oral bioavailability in dog. The conditions noted are these: in vivo. The format is ADME, organism-based, Canis lupus familiaris.
The nature of series [7]: Half life in rat. The following applies: in vivo. The format is ADME, organism-based.
The nature of series [8]: Volume of distribution at steady state in dog. The format is ADME, organism-based, Canis lupus familiaris. The following applies: in vivo, read-out: Vdss.
Series [9] in a line: Clearance in rat. The conditions noted are these: in vivo. The format is ADME, organism-based.
A short description of series [10]: Half life in dog. The format is ADME, organism-based, Canis lupus familiaris. The conditions noted are these: in vivo.
Series [11] is described as follows: Apparent permeability of the compound from basolateral to apical side across human Caco2 cells at 10 uM. Format: ADME, cell-based. The following applies: Caco-2.
Series [12] is described as follows: Lipophilicity, log D of the compound at pH 7.4. The format is physicochemical. The conditions noted are these: buffer.
Series [13] can be described thus: Dissociation constant, pKa of the compound. Format: physicochemical.
Series [14] can be described thus: Apparent permeability of the compound from apical to basolateral side across human Caco2 cells at 10 uM. The format is ADME, cell-based. The following applies: Caco-2.

The structures appear in SMILES notation. Values after ≈ are worked out from the molar mass of the structure shown.

Take `Cc1ccc(NC(=O)c2cccc(F)c2)cc1-n1cnc2ccc(N3CCN(C)CC3)cc2c1=O`: in series [1], the hepatocyte CLint is 11 µL/min/1e6 cells.
Still for that read-out and setting: next, `Cc1ccc(NC(=O)c2ccno2)cc1-n1cnc2ccc(N3CCN(C)CC3)cc2c1=O`: 5 µL/min/1e6 cells.
As to `Cc1ccc(NC(=O)c2cccc(C#N)c2)cc1-n1cnc2ccc(N3CCN(C)CC3)cc2c1=O`, in [1], the intrinsic clearance (hepatocyte CLint) was less than 3 µL/min/1e6 cells.
In the case of `Cc1ccc(NC(=O)c2ccnc(N3CCOCC3)c2)cc1-n1cnc2ccc(N3CCN(C)CC3)cc2c1=O`, the hepatocyte CLint in series [1] amounted to 17 µL/min/1e6 cells. Besides, in series [2], the solubility turned out to be 300 µM (≈ 162 µg/mL).
In the case of `Cc1ccc(C(=O)Nc2ccon2)cc1-n1cnc2ccc(N3CCN(C)CC3)cc2c1=O`, the clearance worked out at 1.14 L/h/kg in series [3] and 1.02 L/h/kg in series [9]. Besides, the bioavailability in series [4] is 41%; in series [6], 20%. For the same compound, the Vd in series [5] was determined as 2.5 L/kg; in series [8], 3.7 L/kg. Further, the half-life was 1.7 h in series [7] and 4 h in series [10].
In series [1], `Cc1ccc(NC(=O)c2cscn2)cc1-n1cnc2ccc(N3CCN(C)CC3)cc2c1=O` yielded a hepatocyte CLint of 7 µL/min/1e6 cells.
Regarding `Cc1ccc(NC(=O)c2ccc(C#N)cc2)cc1-n1cnc2ccc(N3CCN(C)CC3)cc2c1=O`, the values for the bioavailability in series [4] and in series [6] were 29% and 53%, respectively. Further, the Vd was determined as 4.8 L/kg in series [5] and 7.8 L/kg in [8].
In series [1], `COc1ccccc1C(=O)Nc1ccc(C)c(-n2cnc3ccc(N4CCN(C)CC4)cc3c2=O)c1` displayed a hepatocyte CLint of 5 µL/min/1e6 cells.
Compound `Cc1ccc(NC(=O)c2ccccc2)cc1-n1cnc2ccc(N3CCN(C)CC3)cc2c1=O` had a hepatocyte CLint in [1] of 6 µL/min/1e6 cells.
In series [2], `Cc1ccc(NC(=O)c2cccc(N3CCOCC3)c2)cc1-n1cnc2ccc(N3CCN(C)CC3)cc2c1=O` registered a solubility of 300 µM (≈ 162 µg/mL).
Consider `Cc1ccc(NC(=O)c2ccccc2F)cc1-n1cnc2ccc(N3CCN(C)CC3)cc2c1=O`, for which the hepatocyte CLint in series [1] stood at 7 µL/min/1e6 cells.
`Cc1ccc(C(=O)NC2CC2)cc1-n1cnc2ccc(N3CCN(C)CC3)cc2c1=O` [AZD-6703]: the Papp B→A at 10 µM in series [11] turned out to be 110 nm/s. For the same compound, the clearance in series [3] was 1.44 L/h/kg; in [9], 1.56 L/h/kg. Moreover, the figures for the bioavailability in series [4] and in series [6] were 49% and 68%, respectively. The values for the Vd in series [5] and in series [8] were 1.9 L/kg and 3.3 L/kg, respectively. Moreover, the logD in series [12] was determined as 1.6. Also, the pKa in [13] is 7.6. The hepatocyte CLint in [1] worked out at 2 µL/min/1e6 cells. Moreover, in series [14], the Papp A→B at 10 µM was found to be 60 nm/s. In series [10], this compound had a half-life of 1.7 h.
For `Cc1ccc(NC(=O)c2ccnc(N3CCOCC3)c2)cc1-n1c(C)nc2ccc(N3CCN(C)CC3)cc2c1=O`, the solubility in series [2] worked out at 300 µM (≈ 166 µg/mL).
In series [1], `Cc1ccc(NC(=O)c2cncs2)cc1-n1cnc2ccc(N3CCN(C)CC3)cc2c1=O` displayed an intrinsic clearance (hepatocyte CLint) of less than 3 µL/min/1e6 cells.
